Results taken from publication PMC9161374 (Science Translational Medicine, 2022).
“And” between values parts separate entries of the source, which are not always exact repeats. Equal entries are not always repeated. Where two headings read alike, the source gives them in different places.

Key:
SARS-CoV-2 Delta variant [1] = format: in vivo, K18-hACE2 mice; conditions: for nucleocapsid gRNA copies/ μL / Log10 (FFU/g) / % Initial weight: individual animals; for nucleocapsid gRNA copies/ μL: Fig.6C; for Log10 (FFU/g): Fig.6D; for % Initial weight: Fig.6B
SARS-CoV-2 Delta variant [2] = format: in vivo, K18-hACE2 mice; conditions: for lung virus titers in plaque assays: ATV006 250 or 100 mg/kg, EIDD-2801 500 mg/kg
[3] = tested on: SARS-CoV-2 (Delta, B.1.617.2); assay: microbe, parasite or virus in culture; format: cell-based
[4] = tested on: SARS-CoV-2 (Omicron, B.1.1.529)

In the case of `N#C[C@@]1(c2ccc3c(N)ncnn23)O[C@H](CO)[C@@H](O)[C@H]1O` [GS-441524, reference compound], the “nucleocapsid gRNA copies/ μL” value (SARS-CoV-2 Delta variant [1]; 80mg/kg) is reported as 3072139 copies/ μL and 3630875 copies/ μL and 3484205 copies/ μL and 3410466 copies/ μL and 4171196 copies/ μL, the “Log10 (FFU/g)” value (SARS-CoV-2 Delta variant [1]; 80mg/kg) is reported as 488571 FFU/g and 702857 FFU/g and 351429 FFU/g and 720000 FFU/g and 531429 FFU/g and the “nucleocapsid gRNA copies/ μL” value (SARS-CoV-2 Delta variant [1]; 150mg/kg) is reported as 3129847 copies/ μL and 270812 copies/ μL and 4369083 copies/ μL and 2646326 copies/ μL and 9650757 copies/ μL. For the same compound, the “Log10 (FFU/g)” value (SARS-CoV-2 Delta variant [1]; 150mg/kg) was 342857 FFU/g and 368571 FFU/g and 531429 FFU/g and 360000 FFU/g and 420000 FFU/g, the “Viral titer in lungs” value (SARS-CoV-2 Delta variant [1]; mouse, in vivo) was “did not inhibit virus replication” and the lung histopathology (SARS-CoV-2 Delta variant [1]; mouse, in vivo) was “multiple sites of injury and inflammatory cell infiltration”.
`CC(C)C(=O)OC[C@H]1O[C@@H](n2ccc(NO)nc2=O)[C@H](O)[C@@H]1O` [EIDD-2801, molnupiravir, reference compound] was tested, and the “lung virus titers in plaque assays” value (SARS-CoV-2 Delta variant [2]; […]) was “below the limit of detection”.
In the case of `CC(C)C(=O)OC[C@H]1O[C@@](C#N)(c2ccc3c(N)ncnn23)[C@H](O)[C@@H]1O` [ATV006], the “lung virus titers in plaque assays” value (SARS-CoV-2 Delta variant [2]; […]) is reported as “below the limit of detection”, the “Ccl2 transcript, Vehicle/ATV006 fold change + standard error of the mean” value (SARS-CoV-2 Delta variant [2]; mouse, in vivo) is reported as 24.69±25.14 and the “Cxcl10 transcript, Vehicle/ATV006 fold change + standard error of the mean” value (SARS-CoV-2 Delta variant [2]; mouse, in vivo) is reported as 43.19±20.74. The “Ifnb transcript, Vehicle/ATV006 fold change + standard error of the mean” value (SARS-CoV-2 Delta variant [2]; mouse, in vivo) was 5.85±4.59, the “Ifng transcript, Vehicle/ATV006 fold change + standard error of the mean” value (SARS-CoV-2 Delta variant [2]; mouse, in vivo) was 25.56±17.77 and the “Il1β transcript, Vehicle/ATV006 fold change + standard error of the mean” value (SARS-CoV-2 Delta variant [2]; mouse, in vivo) was 0.66±0.01. The “Il6 transcript, Vehicle/ATV006 fold change + standard error of the mean” value (SARS-CoV-2 Delta variant [2]; mouse, in vivo) was 3.14±2.37, the “lung pathology (histopathology)” value (SARS-CoV-2 Delta variant [2]; mouse, in vivo) was “reduced evidence of lung pathology” and the “lung viral RNA compared to the control” value (SARS-CoV-2 Delta variant [2]; mouse, in vivo) was “significantly reducing viral RNA”. For the same compound, the “spike (S) protein of SARS-CoV-2 in lungs, immunohistochemistry” value (SARS-CoV-2 Delta variant [2]; mouse, in vivo) was “hardly detectable”, the survival (SARS-CoV-2 Delta variant [2]; prophylactic dosing, orally once daily, […]) was “prevent the death” and the “% Initial weight” value (SARS-CoV-2 Delta variant [1]; 10mg/kg, 0d) was 100%. For the same compound, the “% Initial weight” value (SARS-CoV-2 Delta variant [1]; 10mg/kg, 1d) was 101.648% and 100.759% and 96.0784% and 96.7539% and 101.529%, the “% Initial weight” value (SARS-CoV-2 Delta variant [1]; 10mg/kg, 2d) was 101.923% and 99.2405% and 97.0588% and 94.7644% and 103.824% and the “% Initial weight” value (SARS-CoV-2 Delta variant [1]; 10mg/kg, 3d) was 98.9011% and 98.7342% and 96.5686% and 95.0262% and 104.706%. The “nucleocapsid gRNA copies/ μL” value (SARS-CoV-2 Delta variant [1]; 10mg/kg) was 146414 copies/ μL and 275440 copies/ μL and 232362 copies/ μL and 312910 copies/ μL and 80285.6 copies/ μL, the “% Initial weight” value (SARS-CoV-2 Delta variant [1]; 30mg/kg, 0d) was 100% and the “% Initial weight” value (SARS-CoV-2 Delta variant [1]; 30mg/kg, 1d) was 102.538% and 104.147% and 99.7354% and 98.4143% and 100.606%. For the same compound, the “% Initial weight” value (SARS-CoV-2 Delta variant [1]; 30mg/kg, 2d) was 101.015% and 104.987% and 97.619% and 97.6982% and 97.3539%, the “% Initial weight” value (SARS-CoV-2 Delta variant [1]; 30mg/kg, 3d) was 101.777% and 105.249% and 100% and 99.7442% and 101.433% and the “nucleocapsid gRNA copies/ μL” value (SARS-CoV-2 Delta variant [1]; 30mg/kg) was 13248.7 copies/ μL and 53687.7 copies/ μL and 90173.6 copies/ μL and 4602.2 copies/ μL and 1089.53 copies/ μL. The “Log10 (FFU/g)” value (SARS-CoV-2 Delta variant [1]; 30mg/kg) was 285 FFU/g and 11142.9 FFU/g and 1428.57 FFU/g, the “% Initial weight” value (SARS-CoV-2 Delta variant [1]; 80mg/kg, 0d) was 100% and the “% Initial weight” value (SARS-CoV-2 Delta variant [1]; 80mg/kg, 1d) was 98.0198% and 99.4949% and 101.272% and 98.5163% and 99.5238%. The “% Initial weight” value (SARS-CoV-2 Delta variant [1]; 80mg/kg, 2d) was 101.98% and 95.9596% and 100% and 98.635% and 104.762%, the “% Initial weight” value (SARS-CoV-2 Delta variant [1]; 80mg/kg, 3d) was 103.96% and 97.3232% and 99.6438% and 102.077% and 105.357% and the “nucleocapsid gRNA copies/ μL” value (SARS-CoV-2 Delta variant [1]; 80mg/kg) was 1775.52 copies/ μL and 4114.3 copies/ μL and 2639.93 copies/ μL and 10494.5 copies/ μL and 13845.3 copies/ μL. For the same compound, the “Log10 (FFU/g)” value (SARS-CoV-2 Delta variant [1]; 80mg/kg) was 285 FFU/g, the “% Initial weight” value (SARS-CoV-2 Delta variant [1]; 150mg/kg, 0d) was 100% and the “% Initial weight” value (SARS-CoV-2 Delta variant [1]; 150mg/kg, 1d) was 98.25% and 98.7147% and 97.1922% and 101.765% and 97.8241%. For the same compound, the “% Initial weight” value (SARS-CoV-2 Delta variant [1]; 150mg/kg, 2d) was 98.35% and 100% and 98.2721% and 105.229% and 95.8333%, the “% Initial weight” value (SARS-CoV-2 Delta variant [1]; 150mg/kg, 3d) was 97.75% and 97.4293% and 97.1922% and 107.516% and 97.4537% and the “nucleocapsid gRNA copies/ μL” value (SARS-CoV-2 Delta variant [1]; 150mg/kg) was 3137.57 copies/ μL and 1055.82 copies/ μL and 1750.74 copies/ μL and 2116.43 copies/ μL and 8855.34 copies/ μL. For the same compound, the “Log10 (FFU/g)” value (SARS-CoV-2 Delta variant [1]; 150mg/kg) was 285 FFU/g, the “Viral titer in lungs” value (SARS-CoV-2 Delta variant [1]; mouse, in vivo) was “reduced below the detection limit” and the lung histopathology (SARS-CoV-2 Delta variant [1]; mouse, in vivo) was “alleviated the symptoms in the lungs”. The “viral load in the lungs” value (SARS-CoV-2 Delta variant [1]; mouse, in vivo) was “reduced viral load in the lungs”, the fold potency improvement [3] was over 4 fold and the fold potency improvement [4] was over 12 fold. The “therapeutic index (CC50/EC50)” value [4] was 1207.55.
